Assay results reported in US12371432B2, “Haloallylamine compounds and application thereof” (TransThera Sciences (Nanjing), Inc., priority 2019, dated 2025).
Where a name gives a salt, the structure may show the parent alone. Read-outs that look alike come from different tables or passages of the source.

What was measured:
[1] = Rat blood-brain barrier evaluation; assay type: in vivo; conditions: rat, oral, SD rats, intragastric 10 mg/kg
Protocol: (1) Animal Administration and Sampling Method:
The study compound A1, the compound A41 and PXS-4728 were dissolved in normal saline to prepare solutions. The prepared solutions were separately administered by intragastric administration to SD rats at a dose of 10 mg/kg. […] At each time point, samples were collected from three SD rats.
On the day of the study, the animals were fixed to collect 0.15 mL of blood from the jugular vein at each set time point, and the whole blood samples were put into anticoagulation tubes containing EDTA-K2. After blood sampling was completed, heart perfusion was immediately performed for the animals, and following the heart perfusion, brain tissue samples were collected.
After the whole blood samples were centrifuged under the condition of 1,524 g for 10 min, top plasma samples were collected into sample tubes. The tissue samples were weighed, added with 20% of aqueous methanol solution at a weight-to-volume ratio of 1:5 (tissue:homogenate) and homogenized. The biological samples were stored at −40° C. to −20° C. for analysis.
(4) Sample Analysis Method:
(§1) Plasma sample: The samples to be tested were taken out of the refrigerator, naturally thawed at room temperature and then swirled for 5 min, and 20 μL of plasma sample was accurately pipetted into 1.5 mL centrifuge tubes. 100 μL of internal standard working solution (solution of 5 ng/mL verapamil and 50 ng/mL glibenclamide in acetonitrile) was added, and uniform mixing was performed. After 1 min of swirling, centrifugation was performed at 13,000 rpm for 8 min. 40 μL of supernate was accurately pipetted into a 96-well plate added with 160 μL water/well in advance. Uniform mixing was performed by swirling for 10 min, followed by LC-MS/MS assay.
as §1, with “Brain tissue” for “Plasma”, “50” for “20”, “250” for “100”, “30” for “40”, “150” for “160”
(5) Data Processing Method:
Analyst 1.6.2 from AB Sciex was used to output concentration results of tested compounds. Microsoft Excel was used to calculate parameters such as mean value, standard deviation and variation coefficient (excluding those outputted directly by Analyst 1.6.2).

rhVAP-1 = target: T1, rhVAP-1 (Homo sapiens, UniProt Q16853); test: Inhibitory activity against rhVAP-1 enzyme (Biological Example 2); assay type: biochemical; conditions: Table 2; benzylamine substrate, Amplex Red/HRP
T1 construct: purchased PeproTech
T1 sequence (Q16853 27-763 limits assumed): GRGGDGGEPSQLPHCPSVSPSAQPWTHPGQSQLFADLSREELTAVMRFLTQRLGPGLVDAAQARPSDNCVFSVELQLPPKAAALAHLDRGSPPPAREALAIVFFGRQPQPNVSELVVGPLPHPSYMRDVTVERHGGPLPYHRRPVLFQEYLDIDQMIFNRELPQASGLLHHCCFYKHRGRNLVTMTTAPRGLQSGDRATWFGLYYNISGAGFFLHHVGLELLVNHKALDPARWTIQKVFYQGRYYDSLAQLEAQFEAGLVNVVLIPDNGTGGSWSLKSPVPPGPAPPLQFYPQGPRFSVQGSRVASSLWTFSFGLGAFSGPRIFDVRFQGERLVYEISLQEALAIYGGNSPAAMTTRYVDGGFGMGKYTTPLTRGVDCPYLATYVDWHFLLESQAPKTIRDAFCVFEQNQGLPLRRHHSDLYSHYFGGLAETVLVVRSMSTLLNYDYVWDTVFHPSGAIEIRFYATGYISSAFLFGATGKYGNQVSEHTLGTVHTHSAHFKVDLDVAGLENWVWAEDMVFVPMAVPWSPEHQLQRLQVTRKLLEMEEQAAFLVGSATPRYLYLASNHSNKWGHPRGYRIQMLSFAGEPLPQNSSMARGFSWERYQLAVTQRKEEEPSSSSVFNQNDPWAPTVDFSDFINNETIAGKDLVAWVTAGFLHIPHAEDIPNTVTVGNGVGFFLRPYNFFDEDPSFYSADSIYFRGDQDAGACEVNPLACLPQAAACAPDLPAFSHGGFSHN
Protocol: 1. Inhibitory Activity of Compounds Against rhVAP-1 Enzyme
(§2) (1) Instrument, Consumable and Reagent
Microplate reader (Perkin Elmer, Nivo 5S), black unclear-bottom 96-well plate (Corning) and rhVAP-1 (PeproTech)
(§3) (2) Preparation of Concentration Gradient Compound Solutions
(§4) An appropriate amount of the compound to be tested was taken, dissolved in DMSO to 10 mM and then stored. Before the study, an appropriate amount of mother liquor of the 10 mM compound to be tested was taken and gradiently diluted 3-fold with DMSO, 10 concentration gradients in total. Each concentration gradient was then diluted 100-fold with 0.1 M of PBS.
(§5) (3) Preparation of Enzyme Solutions
An appropriate amount of protein diluent was added into rhVAP-1 powder, obtaining 1 mg/mL of mother liquor for storage. Before the study, PBS was used to carry out dilution to obtain enzyme solutions of 4× concentrations.
(§6) (4) Preparation of Substrate Mixtures of 2× Concentrations
(§7) An appropriate amount of benzylamine was weighed and dissolved with PBS to obtain 200 mM of benzylamine solution. The benzylamine solution was added with 2 mM of Amplex Red mother liquor and 500 U/mL of HRP mother liquor and diluted with PBS to obtain substrate mixtures of 2× concentrations.
(§8) 10 μL compound solutions of different concentrations, 25 μL rhVAP-1 enzyme solutions of 4× concentrations and 15 μL of PBS were first added into a 96-well plate, shaken to be mixed uniformly and then incubated at 37° C. for 30 min. 50 μL substrate mixtures of 2× concentrations were then added into each well, and the microplate reader was immediately used to perform detection with 580 nm (20 nm) exciting light and 620 nm (10 nm) emission light for 5 min each time, 30 min in total. The inhibition rate was calculated according to the following formula: V (RFU/min)=(Ft (RFU)−F0 (RFU))/(time(min)) Inhibition rate (%)=100%−Vcmpd (RFU/min)/Vmax (RFU/min)×100%
(§9) V: fluorescence change rate; Ft: fluorescence reading at time point t; F0: initial fluorescence reading; Time: duration t; Vcmpd: fluorescence change rate of tested compound; Vmax: Max hole fluorescence change rate.
(§10) (6) Fitting of Dose-Response Curve
(§11) With the log value of concentration as the X axis and the percent inhibition rate as the Y axis, the log (inhibitor) vs. response-variable slope of analysis software GraphPad Prism 5 was used to fit a dose-response curve, thus obtaining the IC50 value of activity of each compound against the enzyme.

rhAOC1 = target: T2, rhAOC1 (Homo sapiens, UniProt P19801); test: Selectivity against rhAOC1 enzyme (Biological Example 2); assay type: biochemical; conditions: Table 2; histamine substrate, Amplex Red/HRP
T2 construct: purchased R&D
T2 sequence (P19801 20-751): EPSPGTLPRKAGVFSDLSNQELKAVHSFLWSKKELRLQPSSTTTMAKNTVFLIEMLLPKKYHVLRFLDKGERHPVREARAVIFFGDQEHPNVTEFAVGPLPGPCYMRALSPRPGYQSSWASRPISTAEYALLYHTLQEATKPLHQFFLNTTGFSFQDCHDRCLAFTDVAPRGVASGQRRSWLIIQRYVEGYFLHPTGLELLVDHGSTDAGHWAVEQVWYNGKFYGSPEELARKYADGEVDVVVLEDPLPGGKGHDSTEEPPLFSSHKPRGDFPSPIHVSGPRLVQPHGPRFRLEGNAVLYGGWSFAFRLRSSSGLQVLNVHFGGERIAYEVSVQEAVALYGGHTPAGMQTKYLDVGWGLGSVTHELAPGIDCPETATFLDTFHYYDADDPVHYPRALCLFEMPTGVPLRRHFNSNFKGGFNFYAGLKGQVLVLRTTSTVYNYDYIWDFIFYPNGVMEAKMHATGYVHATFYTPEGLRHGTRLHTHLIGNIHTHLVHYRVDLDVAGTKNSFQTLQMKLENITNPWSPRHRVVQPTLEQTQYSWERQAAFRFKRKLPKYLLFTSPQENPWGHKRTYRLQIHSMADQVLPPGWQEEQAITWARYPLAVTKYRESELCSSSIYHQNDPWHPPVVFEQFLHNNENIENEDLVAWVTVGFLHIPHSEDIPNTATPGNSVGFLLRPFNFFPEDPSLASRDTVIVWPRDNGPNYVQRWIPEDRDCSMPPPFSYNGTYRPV
Protocol: 2. Selectivity of Compounds Against rhAOC1 Enzyme
as §2
Microplate reader (Perkin Elmer, Nivo 5S), black unclear-bottom 96-well plate (Corning) and rhAOC1 (R&D)
as §3
as §4, with “10-fold” for “100-fold”
as §5
An appropriate amount of rhAOC1 mother liquor with a concentration of 0.441 mg/mL was taken and diluted with an appropriate amount of 50 mM HEPES buffer solution to obtain enzyme solutions of 4× concentrations.
as §6
as §7, with “histamine” for “benzylamine”, “50 mM of HEPES buffer solution” for “PBS”, “20” for “200”
as §8, with “rhAOC1” for “rhVAP-1”, “50 mM HEPES buffer solution” for “PBS”, “detect fluorescence intensity of each well” for “perform detection”
as §9, §10, §11

SMILES | concentration at 0.167 h ([1]; brain, 0.167 h, read-out: Average Brain tissue concentration (N=3)) [ng/g] | concentration at 1 h ([1]; brain, 1 h, read-out: Average Brain tissue concentration (N=3)) [ng/g] | concentration at 6 h ([1]; brain, 6 h, read-out: Average Brain tissue concentration (N=3)) [ng/g] | Kp at 0.167 h ([1]; brain/plasma, 0.167 h, read-out: Mean brain tissue/plasma concentration ratio) | Kp at 1 h ([1]; brain/plasma, 1 h, read-out: Mean brain tissue/plasma concentration ratio) | Kp at 6 h ([1]; brain/plasma, 6 h, read-out: Mean brain tissue/plasma concentration ratio) | concentration at 0.167 h ([1]; plasma, 0.167 h, read-out: Average Plasma concentration (N=3)) [ng/mL] | concentration at 1 h ([1]; plasma, 1 h, read-out: Average Plasma concentration (N=3)) [ng/mL] | concentration at 6 h ([1]; plasma, 6 h, read-out: Average Plasma concentration (N=3)) [ng/mL] | IC50 (rhVAP-1) [nM] | IC50 (rhAOC1) [nM]
CC(C)(C)NC(=O)c1ccc(OC/C(=C/F)CN)cc1 [PXS-4728, reference compound] | 337 | 1400 | 311 | 0.89 | 1.34 | 1.89 | 373 | 1040 | 175 | – | –
CN1CCc2nn(C/C(=C/F)CN)cc2C1=O [Compound A24 hydrochloride, (E)-2-(2-(aminomethyl)-3-fluoroallyl)-5-methyl-2,5,6,7-tetrahydro-4H-pyrazolo[4,3-c]pyridin-4-one] | – | – | – | – | – | – | – | – | – | 54 | 4720
NC/C(=C\F)Cn1cc(C(=O)NC2CC2)cn1 [Compound B4 hydrochloride, (E)-1-(2-(aminomethyl)-3-fluoroallyl)-N-cyclopropyl-1H-pyrazole-4-carboxamide] | – | – | – | – | – | – | – | – | – | 51 | 5930
